System: Genes belonging to other category
Assay: DNA chip mRNA expression in yeast, genes belonging to other category (Table 9)
Assay type: cell-based, Saccharomyces cerevisiae S288C
Summary of the method: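 First, S288C yeast grown in YPD at 25° C. are dosed in log phase with one toxicant (growth-inhibiting, not lethal) for 2 h. Next, total RNA is extracted and poly(A) mRNA isolated and reverse-transcribed with Cy3/Cy5-dUTP. Finally, whole-genome chip fluorescence is read relative to unexposed cells.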

## N#Cc1c(Cl)c(Cl)c(Cl)c(C#N)c1Cl [(9), 2,4,5,6-tetrachloro-1,3-benzenedicarbonitrile]
Yeast gene YMR297W
  The level of expressed mRNA in the presence of chemical substance/The level of expressed mRNA in the absence of chemical substance: 1.9
Yeast gene YMR314W
  The level of expressed mRNA in the presence of chemical substance/The level of expressed mRNA in the absence of chemical substance: 5.9
Yeast gene YNL006W
  The level of expressed mRNA in the presence of chemical substance/The level of expressed mRNA in the absence of chemical substance: 4.0
Yeast gene YNL007C
  The level of expressed mRNA in the presence of chemical substance/The level of expressed mRNA in the absence of chemical substance: 3.0
Yeast gene YNL036W
  The level of expressed mRNA in the presence of chemical substance/The level of expressed mRNA in the absence of chemical substance: 6.6
Yeast gene YNL039W
  The level of expressed mRNA in the presence of chemical substance/The level of expressed mRNA in the absence of chemical substance: 2.1
Yeast gene YNL093W
  The level of expressed mRNA in the presence of chemical substance/The level of expressed mRNA in the absence of chemical substance: 1.7
Yeast gene YNL147W
  The level of expressed mRNA in the presence of chemical substance/The level of expressed mRNA in the absence of chemical substance: 2.1
Yeast gene YNL214W
  The level of expressed mRNA in the presence of chemical substance/The level of expressed mRNA in the absence of chemical substance: 1.5
Yeast gene YNL333W
  The level of expressed mRNA in the presence of chemical substance/The level of expressed mRNA in the absence of chemical substance: 2.3
Yeast gene YNR010W
  The level of expressed mRNA in the presence of chemical substance/The level of expressed mRNA in the absence of chemical substance: 1.7
Yeast gene YNR037C
  The level of expressed mRNA in the presence of chemical substance/The level of expressed mRNA in the absence of chemical substance: 1.3
Yeast gene YNR069C
  The level of expressed mRNA in the presence of chemical substance/The level of expressed mRNA in the absence of chemical substance: 5.5
Yeast gene YOL013C
  The level of expressed mRNA in the presence of chemical substance/The level of expressed mRNA in the absence of chemical substance: 0.8
Yeast gene YOL164W
  The level of expressed mRNA in the presence of chemical substance/The level of expressed mRNA in the absence of chemical substance: 4.9
Yeast gene YOR036W
  The level of expressed mRNA in the presence of chemical substance/The level of expressed mRNA in the absence of chemical substance: 1.2
Yeast gene YOR058C
  The level of expressed mRNA in the presence of chemical substance/The level of expressed mRNA in the absence of chemical substance: 6.4
Yeast gene YOR069W
  The level of expressed mRNA in the presence of chemical substance/The level of expressed mRNA in the absence of chemical substance: 1.9
Yeast gene YOR117W
  The level of expressed mRNA in the presence of chemical substance/The level of expressed mRNA in the absence of chemical substance: 3.5
Yeast gene YOR124C
  The level of expressed mRNA in the presence of chemical substance/The level of expressed mRNA in the absence of chemical substance: 2.0
Yeast gene YOR132W
  The level of expressed mRNA in the presence of chemical substance/The level of expressed mRNA in the absence of chemical substance: 2.8
Yeast gene YOR134W
  The level of expressed mRNA in the presence of chemical substance/The level of expressed mRNA in the absence of chemical substance: 1.5
Yeast gene YOR149C
  The level of expressed mRNA in the presence of chemical substance/The level of expressed mRNA in the absence of chemical substance: 0.4
Yeast gene YOR157C
  The level of expressed mRNA in the presence of chemical substance/The level of expressed mRNA in the absence of chemical substance: 5.7
Yeast gene YOR165W
  The level of expressed mRNA in the presence of chemical substance/The level of expressed mRNA in the absence of chemical substance: 0.8
Yeast gene YOR181W
  The level of expressed mRNA in the presence of chemical substance/The level of expressed mRNA in the absence of chemical substance: 0.6
Yeast gene YOR185C
  The level of expressed mRNA in the presence of chemical substance/The level of expressed mRNA in the absence of chemical substance: 1.9
Yeast gene YOR198C
  The level of expressed mRNA in the presence of chemical substance/The level of expressed mRNA in the absence of chemical substance: 2.4
Yeast gene YOR256C
  The level of expressed mRNA in the presence of chemical substance/The level of expressed mRNA in the absence of chemical substance: 2.7
Yeast gene YOR259C
  The level of expressed mRNA in the presence of chemical substance/The level of expressed mRNA in the absence of chemical substance: 2.7
Yeast gene YOR261C
  The level of expressed mRNA in the presence of chemical substance/The level of expressed mRNA in the absence of chemical substance: 5.5
Yeast gene YOR285W
  The level of expressed mRNA in the presence of chemical substance/The level of expressed mRNA in the absence of chemical substance: 4.0
Yeast gene YOR288C
  The level of expressed mRNA in the presence of chemical substance/The level of expressed mRNA in the absence of chemical substance: 0.9
Yeast gene YOR327C
  The level of expressed mRNA in the presence of chemical substance/The level of expressed mRNA in the absence of chemical substance: 1.4
Yeast gene YOR355W
  The level of expressed mRNA in the presence of chemical substance/The level of expressed mRNA in the absence of chemical substance: 0.1
Yeast gene YOR362C
  The level of expressed mRNA in the presence of chemical substance/The level of expressed mRNA in the absence of chemical substance: 4.3
Yeast gene YOR383C
  The level of expressed mRNA in the presence of chemical substance/The level of expressed mRNA in the absence of chemical substance: 1.2
Yeast gene YPL001W
  The level of expressed mRNA in the presence of chemical substance/The level of expressed mRNA in the absence of chemical substance: 0.7
Yeast gene YPL018W
  The level of expressed mRNA in the presence of chemical substance/The level of expressed mRNA in the absence of chemical substance: 1.4
Yeast gene YPL020C
  The level of expressed mRNA in the presence of chemical substance/The level of expressed mRNA in the absence of chemical substance: 2.3
Yeast gene YPL089C
  The level of expressed mRNA in the presence of chemical substance/The level of expressed mRNA in the absence of chemical substance: 0.4
Yeast gene YPL109C
  The level of expressed mRNA in the presence of chemical substance/The level of expressed mRNA in the absence of chemical substance: 1.2
Yeast gene YPL149W
  The level of expressed mRNA in the presence of chemical substance/The level of expressed mRNA in the absence of chemical substance: 5.6
Yeast gene YPL154C
  The level of expressed mRNA in the presence of chemical substance/The level of expressed mRNA in the absence of chemical substance: 2.8
Yeast gene YPR066W
  The level of expressed mRNA in the presence of chemical substance/The level of expressed mRNA in the absence of chemical substance: 2.3
Yeast gene YPR081C
  The level of expressed mRNA in the presence of chemical substance/The level of expressed mRNA in the absence of chemical substance: 4.2
Yeast gene YPR086W
  The level of expressed mRNA in the presence of chemical substance/The level of expressed mRNA in the absence of chemical substance: 3.0
Yeast gene YPR103W
  The level of expressed mRNA in the presence of chemical substance/The level of expressed mRNA in the absence of chemical substance: 5.5
Yeast gene YPR107C
  The level of expressed mRNA in the presence of chemical substance/The level of expressed mRNA in the absence of chemical substance: 2.4
Yeast gene YPR108W
  The level of expressed mRNA in the presence of chemical substance/The level of expressed mRNA in the absence of chemical substance: 3.7
